How the values were obtained:
hES cells = hES cells cultured in AI medium with inhibitors of FGF receptors, MEK/ERK or Activin/Nodal (TGFβ) signaling; format: cell-based, human; settings: for morphology / survival of hES cells in AI medium with inhibitor: 100 nM PD173074, 1 μM PD0325901 or 10 μM SB-431542, vs DMSO control; for morphology / survival of hES cells in AI medium with inhibitor / expression of pluripotency proteins OCT4 and NANOG (immunofluorescence): 72 hours; for expression of pluripotency proteins OCT4 and NANOG (immunofluorescence): 100 nM PD173074 or 1 μM PD0325901
Protocol: For culture in AI media, cells were maintained on plates coated with 0.5 μg/cm^2 Laminin-511 (Biolamina, Takara), and generally passaged with ReLeSR, similar to cells in mTeSR™1 on Laminin. Early passage newly-derived hES cells in AI medium were passaged by manual picking. Cells in AI media were also split using various dissociation reagents, as indicated in the Examples. For Accutase or AccuMax (StemCell Technologies), the dissociation reagent was added to wells for 5-10 minutes, the well contents were collected and pelleted, and the dissociation reagent removed. Cells were then resuspended in AI media with or without […] ROCK inhibitor for plating. For Gentle Cell Dissociation Reagent (StemCell Technologies), the reagent was added to wells for 6 minutes, then aspirated and AI medium added. Well contents were collected and disaggregated with a 5 ml stripette. For 0.5 mM EDTA (Sigma), the reagent was added for 5 minutes, then aspirated, and AI medium added and cells disaggregated. For salt-free PBS (Gibco, Life Technologies), the reagent was added for 6 minutes, aspirated, then AI medium added and cells disaggregated.
For inhibitor treatment experiments, cell culture media was supplemented with 100 nM PD173074 (FGF receptor inhibitor), 1 μM PD0325901 (MEK inhibitor) or 10 μM SB-431542 (Activin/Nodal receptor inhibitor) as indicated in the Examples. Cells were exposed to inhibitors for 72 hours.
On the day of fixation, medium was removed from pluripotent cell lines or differentiated cells and the cells were washed with Dulbeco's Phosphate-Buffer saline (PBS) without calcium and magnesium (Thermo Fisher Scientific). Cells were fixed with 4% (w/v) paraformaldehyde (PFA) (ThermoFisher Scientific) for 1 h and permeabilised with 0.5% (w/v) Triton X-100 or 0.5% (v/v) Tween-20 (Sigma Aldrich). Non-specific binding was minimised using 2-10% (v/v) donkey serum (AbCam) in PBS (containing 0.05% (v/v) Tween-20 or 0.01% Tween-20). The following primary antibodies were used (all at 1:500 dilution unless otherwise indicated): anti-NANOG (AF1997 R&D Systems; REC-RCAB0001P, 2B Scientific; 4903P, Cell Signaling Technologies or ab21624, Abcam), anti-SOX17 (AF1924, R&D Systems), anti-TRA-1-81 (MAB4381, Millipore; or 560072, BD Biosciences), anti-TUJ1 (T2200, Sigma), anti-FOXA2 (3143, Cell Signaling), anti-OCT4 (sc-5279, Santa Cruz or 2750S, Cell Signaling Technologies), anti-SSEA4 (MA1-021, Life Technologies or MC-813-70, DSHB, 1:100), anti-TRA-1-60 (MAB4360, Millipore, 1:100), anti-CXCR4 (MAB173, R&D), anti-Desmin (RB-9014-R7, Neomarkers, 1:50), anti-AFP (A0008, Dako), anti-cytokeratin-18 (ab668, Abcam). Primary antibody was removed by washing with PBS (containing 0.05% or 0.01% v/v Tween-20). Secondary antibodies (Alexa Fluor® 488, Alexa Fluor® 594, Alexa Fluor® 555 donkey anti-rabbit, mouse or goat, Molecular Probes) were diluted in blocking solution at a 1:300 concentration and added to the corresponding wells for 1 hour at room temperature. Cells were the washed several times in of 0.1% (v/v) Tween-20 and placed in a last wash for 30 minutes. A drop of Vectashield containing DAPI (Vector Labs) was added to each well prior to imaging.

human embryos = assay: Human embryo culture with growth factor treatment, immunofluorescence and automated quantification; format: cell-based
Protocol: Human embryos were donated to the research project by informed consent under the UK Human Fertilisation and […] Licence number R0162. Vitrified embryos frozen in straws were thawed by quickly transferring the contents of the straw from liquid nitrogen directly into thaw solution (Irvine Scientific Vitrification Thaw Kit) and thawed as per manufacturer's instructions. Embryos frozen in cryopets were first thawed for 3 seconds in a 37° C. waterbath before transferring into thaw solution (Irvine Scientific Vitrification Thaw Kit). Embryos frozen in glass ampoules were thawed completely in a 37° C. waterbath after the top of the vial was removed under liquid nitrogen. The contents were emptied onto a petri dish and the embryo transferred through a gradient of sucrose solutions (Quinn's Advantage Thaw Kit, Origio) as per manufacturer's instructions.
Embryos were routinely cultured in Global Media (LifeGlobal) supplemented with 5 mg/mL LifeGlobal Protein Supplement pre-equilibrated in an incubator at 37° C. and 5% CO2. For growth factor or inhibitor treatment, these conditions were further supplemented with FGF2 (3718-FB-01M, R&D) or IGF1 (291-G1-10, R&D) as indicated.
Embryos were fixed with 4% (w/v) paraformaldehyde (PFA) (ThermoFisher Scientific) for 1 h at 4° C. on a rotating shaker and analysed as described previously (Niakan and Eggan, Developmental Biology, 2013: doi: 10.1016/j.ydbio.2012.12.008). Briefly, embryos were then transferred through several washes of 0.1% (v/v) Tween-20 (Sigma Aldrich) diluted in Dulbeco's Phosphate-Buffer saline (PBS) without calcium and magnesium (Thermo Fisher Scientific) to remove residual paraformaldehyde. Embryos were placed for 20 minutes in 0.5% (v/v) Tween-20 for permeabilization. Embryos were blocked for 1 hour at room temperature in blocking solution (10% donkey serum diluted in 0.1% (v/v) Tween-20). Embryos were placed in primary antibodies at a concentration of 1:500 in blocking solution overnight at 4° C. on a rotating shaker. The following primary antibodies were used (all at 1:500 dilution): anti-NANOG (AF1997 R&D Systems, REC-RCAB0001P 2B Scientific, or ab21624, Abcam), anti-GATA6 (SC-9055, Santa Cruz) and anti-SOX17 (AF1924, R & D Systems). The following day, embryos were transferred through 4 washes of 0.1% (v/v) Tween-20 then placed in a last wash for 30 minutes. Secondary antibodies (Cy3, FITC or Cy5 donkey anti-rabbit, mouse or goat, Molecular Probes) were diluted in blocking solution at a 1:300 concentration. Embryos were placed in secondary antibody for 1 hour at room temperature on a rotating shaker, transferred through 4 washes of 0.1% (v/v) Tween-20 and placed in a last wash for 30 minutes. Embryos were placed in a 50 μL 1:3 dilution of Vectashield containing DAPI (Vector Labs): 0.1% (v/v) Tween-20 on a coverslip bottom dish (MatTek) for confocal imaging.
Embryos were imaged on a Leica SP5 inverted confocal microscope (Leica Microsystems GmbH) at a z-section thickness of 3 μm or 2 μm for human or mouse embryos respectively. MINS 1.3 software was used to detect and segment nuclei and thus determine the number of cells in each embryo (http://katlab-tools.org/) (Lou et al., Stem Cell Reports 2014, doi: 10.1016/j.stemcr.2014.01.010). Confocal stacks in .tif format were loaded into the MINS pipeline for automated nuclear segmentation.
The MINS segmentation output was manually checked for appropriate segmentation and mitotic nuclei were removed from the analysis. Data were subsequently plotted using GraphPad Prism version 6 (GraphPad Software, La Jolla, Calif.).

H9 cells = assay: Test of laminin variants as basement membrane substrate for H9 cells in mTeSR1; format: cell-based, human; settings: 0.5 μg/cm^2 coating, mTeSR1 media, 3 days, vs Matrigel
Excerpt: We therefore interrogated the transcriptome data set to identify chemically defined and physiologically relevant substrates for the derivation of hES and iPS cells. We also interrogated the transcriptome data set and identified expression of transcripts for laminin-binding Integrin α6 and Integrin-β1 (ITGA6, ITGB1) in the human blastocyst, as shown in FIG. 3A. […] Consequently, recombinant human Laminin-511 (Biolamina) or a recombinant Laminin-511 E8 fragment (iMatrix-511, Takara) were selected as basement membrane substrates to culture hES cells, in order to recapitulate the niche within the blastocyst. To test the laminin variants, H9 cells in mTeSR™1 media were passaged onto plates coated with 0.5 μg/cm^2 of either iMatrix-511 (Takara) or LN-511 (Biolamina), as well as a control Matrigel plate, and cultured for 3 days.
For culture in mTeSR™1 media (StemCell Technologies), cells were generally maintained on Matrigel-coated (BD Biosciences) tissue culture plates. Matrigel coating was performed for one hour at room temperature (RT) as per the manufacturer's instructions Cells were passaged as clumps using ReLeSR (Stemcell Technologies). ReLeSR was added to wells for 30 seconds at RT then aspirated, then plates were incubated for 5 minutes at 37° C., quenched with mTeSR™1 and lightly tapped to dislodge clumps of the desired size. […]

CCN(CC)CCCCNc1ncc2cc(-c3cc(OC)cc(OC)c3)c(NC(=O)NC(C)(C)C)nc2n1 [FGF receptor inhibitor, PD173074]
morphology / survival of hES cells in AI medium with inhibitor (hES cells): retained the morphology of pluripotent cells | expression of pluripotency proteins OCT4 and NANOG (immunofluorescence) (hES cells): retained the expression

O=C(NOC[C@H](O)CO)c1ccc(F)c(F)c1Nc1ccc(I)cc1F [MEK/ERK inhibitor, PD0325901]
morphology / survival of hES cells in AI medium with inhibitor (hES cells): retained the morphology of pluripotent cells | expression of pluripotency proteins OCT4 and NANOG (immunofluorescence) (hES cells): retained the expression

NC(=O)c1ccc(-c2nc(-c3ccc4c(c3)OCO4)c(-c3ccccn3)[nH]2)cc1 [TGFβ inhibitor, SB-431542]
morphology / survival of hES cells in AI medium with inhibitor (hES cells): underwent apoptosis | NANOG expression in remaining colonies (immunofluorescence) (hES cells; 10 μM SB-431542, 3 days): undetectable in the majority of cells

FGF2
GATA6 (extraembryonic marker) expression (human embryos; 100 ng/ml FGF2 from E2.5): still expressed | NANOG expression compared to untreated controls (immunofluorescence) (human embryos; 100 ng/ml FGF2 from E2.5, analysed at E6-7): loss of NANOG expression | NANOG expression (human embryos; 100 ng/ml FGF2 from E5 to E6-7): remained expressed | SOX17 (extraembryonic marker) expression (human embryos; 100 ng/ml FGF2 from E5 to E6-7): remained expressed | GATA6 (extraembryonic marker) expression (human embryos; 1 μg/ml FGF2 from E2.5): still expressed | NANOG expression compared to untreated controls (immunofluorescence) (human embryos; 1 μg/ml FGF2 from E2.5, analysed at E6-7): loss of NANOG expression

IGF1
increase in the proportion of NANOG expressing cells compared to control embryos (human embryos; 17 nM IGF1 from E2.5, analysed at E6-7, p-value<0.05): 2 fold | KLF17 (epiblast marker) expression (human embryos; human embryos treated with IGF1): expressed in a higher proportion of cells

Laminin-511: recombinant human Laminin-511 (Biolamina)
pluripotency morphology of H9 cells on substrate (H9 cells): equivalent to Matrigel coating

From US20190330597A1, “COMPOSITION FOR CULTURE OF PLURIPOTENT STEM CELLS” (The Francis Crick Institute Limited, priority 2017, published 2019)
